From patent US20160113282A1 (HONBU SANKEI CO., LTD., priority 2013, published 2016)
Read-outs that look alike come from different tables or passages of the source.

Columns and labels:
[1] = test system: influenza virus Type A Aichi strain A/Aichi/68 (H3N2); format: cell-based; conditions: 10 ppm; for ratio of the amount of residual infectious viruses: 30 minutes at 25° C., PBS = 1.00
[2] = test system: Herpes simplex virus type I VR-539; assay: Inactivation of herpesviruses, plaque assay on Vero cells; format: cell-based
[3] = test system: Vero cells; assay: Impairment in colony formation capability; format: cell-based, African green monkey; conditions: phosphoric acid buffer (FIG. 7)
[4] = test system: HEp-2 cells; assay: Impairment in colony formation capability; format: cell-based, human; conditions: phosphoric acid buffer (FIG. 7)
[5] = test system: MDCK cells; assay: Impairment in colony formation capability; format: cell-based, canine; conditions: phosphoric acid buffer (FIG. 7)
[6] = test system: feline calicivirus F4 strain; assay: Inactivation of feline caliciviruses (Example 10), plaque assay on CRFK cells; format: cell-based; conditions: 30 minutes at 25° C. (FIG. 10)
[7] = test system: feline calicivirus F4 strain; assay: In vitro test in test tube, feline caliciviruses (Example 11); format: cell-based

For `OCl` [Sodium hypochlorite aqueous solution, sodium hypochlorite], the “viruses inactivated to (detectable limit)” value ([1]; each pH from pH 5.5 to pH 8.8) was < 10^−5, the “ratio of the amount of residual infectious viruses” value ([1]; pH 5.5) was under 0.0002 and the “ratio of the amount of residual infectious viruses” value ([1]; pH 6.5) was under 0.0002. For the same compound, the “ratio of the amount of residual infectious viruses” value ([1]; pH 7.5) was under 0.0002, the “ratio of the amount of residual infectious viruses” value ([1]; pH 8.5) was under 0.0002 and the “sterilizing effect on herpesvirus type I” value ([2]; acidic conditions of pH 5.5 or lower) was “diminished”. The “Number of Residual Viruses in Test Solution/Number of Residual Viruses only with Buffer × 100 (%)” value ([2]; pH 4.5, 10 ppm) was 80%, the “Number of Residual Viruses in Test Solution/Number of Residual Viruses only with Buffer × 100 (%)” value ([2]; pH 4.5, 50 ppm) was 67.4% and the “Number of Residual Viruses in Test Solution/Number of Residual Viruses only with Buffer × 100 (%)” value ([2]; pH 4.5, 100 ppm) was 63.1%. The “Number of Residual Viruses in Test Solution/Number of Residual Viruses only with Buffer × 100 (%)” value ([2]; pH 4.5, 150 ppm) was 23.3%, the “Number of Residual Viruses in Test Solution/Number of Residual Viruses only with Buffer × 100 (%)” value ([2]; pH 4.5, 200 ppm) was 35.2% and the “Number of Residual Viruses in Test Solution/Number of Residual Viruses only with Buffer × 100 (%)” value ([2]; pH 5.5, 10 ppm) was 14.3%. The “Number of Residual Viruses in Test Solution/Number of Residual Viruses only with Buffer × 100 (%)” value ([2]; pH 5.5, 50 ppm) was 90.9%, the “Number of Residual Viruses in Test Solution/Number of Residual Viruses only with Buffer × 100 (%)” value ([2]; pH 5.5, 100 ppm) was 96.4% and the “Number of Residual Viruses in Test Solution/Number of Residual Viruses only with Buffer × 100 (%)” value ([2]; pH 5.5, 150 ppm) was under 0.2%. For the same compound, the “Number of Residual Viruses in Test Solution/Number of Residual Viruses only with Buffer × 100 (%)” value ([2]; pH 5.5, 150 ppm, listed as sodium hypochlorite aqueous solution) was “below the detectable limit”, the “Number of Residual Viruses in Test Solution/Number of Residual Viruses only with Buffer × 100 (%)” value ([2]; pH 5.5, 200 ppm) was under 0.5% and the “Number of Residual Viruses in Test Solution/Number of Residual Viruses only with Buffer × 100 (%)” value ([2]; pH 5.5, 200 ppm, listed as sodium hypochlorite aqueous solution) was “below the detectable limit”. The “Number of Residual Viruses in Test Solution/Number of Residual Viruses only with Buffer × 100 (%)” value ([2]; pH 6.5, 10 ppm) was under 6%, the “Number of Residual Viruses in Test Solution/Number of Residual Viruses only with Buffer × 100 (%)” value ([2]; pH 6.5, 50 ppm) was under 0.3% and the “Number of Residual Viruses in Test Solution/Number of Residual Viruses only with Buffer × 100 (%)” value ([2]; pH 6.5, 100 ppm) was under 0.3%. For the same compound, the “Number of Residual Viruses in Test Solution/Number of Residual Viruses only with Buffer × 100 (%)” value ([2]; pH 6.5, 150 ppm) was under 0.2%, the “Number of Residual Viruses in Test Solution/Number of Residual Viruses only with Buffer × 100 (%)” value ([2]; pH 6.5, 200 ppm) was under 0.6% and the “Number of Residual Viruses in Test Solution/Number of Residual Viruses only with Buffer × 100 (%)” value ([2]; pH 7.5, 10 ppm) was 20%. For the same compound, the “Number of Residual Viruses in Test Solution/Number of Residual Viruses only with Buffer × 100 (%)” value ([2]; pH 7.5, 50 ppm) was under 0.3%, the “Number of Residual Viruses in Test Solution/Number of Residual Viruses only with Buffer × 100 (%)” value ([2]; pH 7.5, 100 ppm) was under 0.3% and the “Number of Residual Viruses in Test Solution/Number of Residual Viruses only with Buffer × 100 (%)” value ([2]; pH 7.5, 150 ppm) was under 0.2%. The “Number of Residual Viruses in Test Solution/Number of Residual Viruses only with Buffer × 100 (%)” value ([2]; pH 7.5, 200 ppm) was under 0.4%, the “Number of Residual Viruses in Test Solution/Number of Residual Viruses only with Buffer × 100 (%)” value ([2]; pH 8.5, 10 ppm) was 36% and the “Number of Residual Viruses in Test Solution/Number of Residual Viruses only with Buffer × 100 (%)” value ([2]; pH 8.5, 50 ppm) was under 0.3%. For the same compound, the “Number of Residual Viruses in Test Solution/Number of Residual Viruses only with Buffer × 100 (%)” value ([2]; pH 8.5, 100 ppm) was under 0.3%, the “Number of Residual Viruses in Test Solution/Number of Residual Viruses only with Buffer × 100 (%)” value ([2]; pH 8.5, 150 ppm) was under 0.2% and the “Number of Residual Viruses in Test Solution/Number of Residual Viruses only with Buffer × 100 (%)” value ([2]; pH 8.5, 200 ppm) was under 0.4%. The “concentration reducing HSV-I to below the detectable limit” value ([2]; pH conditions of 6.5-8.5) was at least 50 ppm, the “concentration at which impairment in colony formation was observed” value (from here on “concentration at which impairment”) [3] was at most 5 ppm and the “concentration at which impairment” value [4] was at most 5 ppm. For the same compound, the “concentration at which impairment” value [5] was at most 5 ppm, the “effect of pH on inactivation of feline caliciviruses” value ([6]; pH 4.5 and pH 7.5) was “greatly affected by pH” and the “feline caliciviruses inactivation capability” value ([6]; pH of 4.5) was “lost”. For the same compound, the “number of infectious viruses” value ([7]; pH 5.5, 25 ppm, contact 0 min) was 5.4 ± 1.7 log CPU/mL, the “number of infectious viruses” value ([7]; pH 5.5, 50 ppm, contact 0 min) was 5.4 ± 1.7 log CPU/mL and the “number of infectious viruses” value ([7]; pH 5.5, 100 ppm, contact 0 min) was 5.4 ± 1.7 log CPU/mL. The “number of infectious viruses” value ([7]; pH 5.5, 200 ppm, contact 0 min) was 5.4 ± 1.7 log CPU/mL, the “number of infectious viruses” value ([7]; pH 5.5, 200 ppm, contact 5 min) was 3.7 ± 1.8 log CPU/mL and the “number of infectious viruses” value ([7]; pH 5.5, 200 ppm, contact 10 min) was 2.6 ± 1.8 log CPU/mL. For the same compound, the “number of infectious viruses” value ([7]; pH 5.5, 400 ppm, contact 0 min) was 5.4 ± 1.7 log CPU/mL, the “number of infectious viruses” value ([7]; pH 5.5, 400 ppm, contact 1 min) was under 2.0 log CPU/mL and the “number of infectious viruses” value ([7]; pH 5.5, 400 ppm, contact 5 min) was under 2.0 log CPU/mL. For the same compound, the “number of infectious viruses” value ([7]; pH 5.5, 400 ppm, contact 10 min) was under 2.0 log CPU/mL, the “number of infectious viruses” value ([7]; pH 6.5, 25 ppm, contact 0 min) was 6.1 ± 2.1 log CPU/mL and the “number of infectious viruses” value ([7]; pH 6.5, 50 ppm, contact 0 min) was 6.1 ± 2.1 log CPU/mL. The “number of infectious viruses” value ([7]; pH 6.5, 100 ppm, contact 0 min) was 6.1 ± 2.1 log CPU/mL, the “number of infectious viruses” value ([7]; pH 6.5, 200 ppm, contact 0 min) was 6.1 ± 2.1 log CPU/mL and the “number of infectious viruses” value ([7]; pH 6.5, 200 ppm, contact 5 min) was 3.3 ± 2.9 log CPU/mL. For the same compound, the “number of infectious viruses” value ([7]; pH 6.5, 200 ppm, contact 10 min) was under 2.0 log CPU/mL, the “number of infectious viruses” value ([7]; pH 6.5, 400 ppm, contact 0 min) was 6.1 ± 2.1 log CPU/mL and the “number of infectious viruses” value ([7]; pH 6.5, 400 ppm, contact 1 min) was under 2.0 log CPU/mL. For the same compound, the “number of infectious viruses” value ([7]; pH 6.5, 400 ppm, contact 5 min) was under 2.0 log CPU/mL, the “number of infectious viruses” value ([7]; pH 6.5, 400 ppm, contact 10 min) was under 2.0 log CPU/mL and the “number of infectious viruses” value ([7]; pH 7.5, 25 ppm, contact 0 min) was 5.2 ± 2.6 log CPU/mL. The “number of infectious viruses” value ([7]; pH 7.5, 50 ppm, contact 0 min) was 5.2 ± 2.6 log CPU/mL, the “number of infectious viruses” value ([7]; pH 7.5, 50 ppm, contact 5 min) was 4.4 ± 1.8 log CPU/mL and the “number of infectious viruses” value ([7]; pH 7.5, 50 ppm, contact 10 min) was under 2.0 log CPU/mL. For the same compound, the “number of infectious viruses” value ([7]; pH 7.5, 100 ppm, contact 0 min) was 5.2 ± 2.6 log CPU/mL, the “number of infectious viruses” value ([7]; pH 7.5, 100 ppm, contact 5 min) was 3.4 ± 1.8 log CPU/mL and the “number of infectious viruses” value ([7]; pH 7.5, 100 ppm, contact 10 min) was under 2.0 log CPU/mL. For the same compound, the “number of infectious viruses” value ([7]; pH 7.5, 200 ppm, contact 0 min) was 5.2 ± 2.6 log CPU/mL.
